Test results published in patent US6127519A, “Calcitonin derivatives” (Tsumura & Co., priority 1990, dated 2000).
Numbered stars: 1 amine (or outer) side, 2 acyl side, 3 side chain; on linkers, the order of the positions; unused ones are H or OH. Bridge positions count the residues as written; N and C are the ends. Ends that are not written are not given here. Peptide text beside a SMILES is read from it. Suc = O=C(CCC(=O)[*:2])[*:1]

Test system: calcium concentration in the serum
Experiment: Test 1: reduction of calcium level in serum after tail vein administration to rats
Assay type: in vivo, rats of the Wistar strain
Details: 1 ml/kg tail vein, female Wistar rats
How it was run: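 Female Wistar rats, six weeks old, were assigned in groups of 4 and given the test peptides through the tail vein at 1 ml/kg. The peptides were dissolved in 1% aqueous sodium acetate (pH 4,0) containing 0.1% BSA. Blood (0.3 ml) was drawn from the neck vein immediately before dosing and at set times afterward. Serum was separated by centrifuging at 3500 rpm for 20 minutes. Calcium was measured on a TBA-380 analyzer with a Wako o-cpc kit, and the percentage reduction in serum calcium was calculated.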

[1] = concentration 83 ng/ml, 0 hour (just before administration)
[2] = concentration 83 ng/ml, 2 hours
[3] = concentration 83 ng/ml, 4 hours
[4] = concentration 83 ng/ml, 6 hours
[5] = concentration 830 ng/ml, 0 hour (just before administration)
[6] = concentration 830 ng/ml, 1 hour
[7] = concentration 830 ng/ml, 2 hours
[8] = concentration 830 ng/ml, 4 hours
[9] = concentration 830 ng/ml, 6 hours
[10] = concentration 166 ng/ml, 0 hour (just before administration)
[11] = concentration 166 ng/ml, 1 hour
[12] = concentration 166 ng/ml, 2 hours
[13] = concentration 166 ng/ml, 4 hours
[14] = concentration 166 ng/ml, 6 hours

For `CC[C@H](C)[C@H](NC(=O)[C@H](C)NC(=O)[C@@H](NC(=O)[C@H](CCC(N)=O)NC(=O)[C@@H]1CCCN1C(=O)[C@H](Cc1ccc(O)cc1)NC(=O)[C@@H](NC(=O)[C@H](Cc1c[nH]cn1)NC(=O)[C@H](Cc1ccccc1)NC(=O)[C@H](CCCCN)NC(=O)[C@H](CC(N)=O)NC(=O)[C@H](CC(C)C)NC(=O)[C@H](CC(=O)O)NC(=O)[C@H](CCC(N)=O)NC(=O)[C@H](CO)NC(=O)[C@H](CC(C)C)NC(=O)[C@H](CCCCN)NC(=O)CNC(=O)[C@H](CC(C)C)NC(=O)[C@H](CC(C)C)NC(=O)[C@@H]1CCCCNC(=O)C[C@H](N)C(=O)N[C@@H](CC(N)=O)C(=O)N[C@@H](CC(C)C)C(=O)N[C@@H](CO)C(=O)N[C@@H]([C@@H](C)O)C(=O)N1)[C@@H](C)O)[C@@H](C)O)C(=O)NCC(=O)N[C@H](C(=O)NCC(=O)N[C@@H](C)C(=O)N1CCC[C@H]1C(N)=O)C(C)C` [Peptide No. 31] (H-DNLSTKLLGKLSQDLNKFHTYPQTAIGVGAP-NH2; lactam 1-6), the “Serum calcium level as percent of pre-dose baseline” value (shortened to “Serum calcium level as percent”) [1] was 100.0%, the “Serum calcium level as percent” value (concentration 83 ng/ml, 1 hour) was 79.1% and the “Serum calcium level as percent” value [2] was 72.7%. For the same compound, the “Serum calcium level as percent” value [3] was 77.5%, the “Serum calcium level as percent” value [4] was 74.3% and the “Serum calcium level as percent” value [5] was 100.0%. For the same compound, the “Serum calcium level as percent” value [6] was 74.3%, the “Serum calcium level as percent” value [7] was 65.6% and the “Serum calcium level as percent” value [8] was 57.3%. For the same compound, the “Serum calcium level as percent” value [9] was 49.6%.

With `CC[C@H](C)[C@H](NC(=O)[C@H](C)NC(=O)[C@@H](NC(=O)[C@H](CCC(N)=O)NC(=O)[C@@H]1CCCN1C(=O)[C@H](Cc1ccc(O)cc1)NC(=O)[C@@H](NC(=O)[C@H](Cc1c[nH]cn1)NC(=O)[C@H](Cc1ccccc1)NC(=O)[C@H](CCCCN)NC(=O)[C@H](CC(N)=O)NC(=O)[C@H](CC(C)C)NC(=O)[C@H](CC(=O)O)NC(=O)[C@H](CCC(N)=O)NC(=O)[C@H](CO)NC(=O)[C@H](CC(C)C)NC(=O)[C@H](CCCCN)NC(=O)CNC(=O)[C@H](CC(C)C)NC(=O)[C@H](CC(C)C)NC(=O)[C@@H]1CCCCNC(=O)CCC(=O)N[C@@H](CC(N)=O)C(=O)N[C@@H](CC(C)C)C(=O)N[C@@H](CO)C(=O)N[C@@H]([C@@H](C)O)C(=O)N1)[C@@H](C)O)[C@@H](C)O)C(=O)NCC(=O)N[C@H](C(=O)NCC(=O)N[C@@H](C)C(=O)N1CCC[C@H]1C(N)=O)C(C)C` [Peptide No. 32] (NLSTKLLGKLSQDLNKFHTYPQTAIGVGAP-NH2; linker N-5 via Suc) the “Serum calcium level as percent” value [1] was 100.0%, the “Serum calcium level as percent” value (concentration 83 ng/ml, 1 hour) was 82.4% and the “Serum calcium level as percent” value [2] was 76.1%. The “Serum calcium level as percent” value [3] was 79.1%, the “Serum calcium level as percent” value [4] was 84.1% and the “Serum calcium level as percent” value [5] was 100.0%. For the same compound, the “Serum calcium level as percent” value [6] was 84.5%, the “Serum calcium level as percent” value [7] was 73.6% and the “Serum calcium level as percent” value [8] was 65.9%. The “Serum calcium level as percent” value [9] was 64.2%.

For `CC[C@H](C)[C@H](NC(=O)[C@H](C)NC(=O)[C@@H](NC(=O)[C@H](CCC(N)=O)NC(=O)[C@@H]1CCCN1C(=O)[C@H](Cc1ccc(O)cc1)NC(=O)[C@@H](NC(=O)[C@H](Cc1c[nH]cn1)NC(=O)[C@H](Cc1ccccc1)NC(=O)[C@H](CCCCN)NC(=O)[C@H](CC(N)=O)NC(=O)[C@H](CC(C)C)NC(=O)[C@H](CC(=O)O)NC(=O)[C@H](CCC(N)=O)NC(=O)[C@@H](NC(=O)[C@H](CC(C)C)NC(=O)[C@H](CCCCN)NC(=O)CNC(=O)[C@H](CC(C)C)NC(=O)[C@H](CC(C)C)NC(=O)[C@@H]1CCCCNC(=O)CCC(=O)N[C@@H](CC(N)=O)C(=O)N[C@@H](CC(C)C)C(=O)N[C@@H](CO)C(=O)N[C@@H]([C@@H](C)O)C(=O)N1)[C@@H](C)O)[C@@H](C)O)[C@@H](C)O)C(=O)NCC(=O)N[C@H](C(=O)NCC(=O)N[C@@H](C)C(=O)N1CCC[C@H]1C(N)=O)C(C)C` [Peptide No. 33] (NLSTKLLGKLTQDLNKFHTYPQTAIGVGAP-NH2; linker N-5 via Suc), the “Serum calcium level as percent” value [1] was 100.0%, the “Serum calcium level as percent” value (concentration 83 ng/ml, 1 hour) was 78.2% and the “Serum calcium level as percent” value [2] was 70.0%. For the same compound, the “Serum calcium level as percent” value [3] was 92.4%, the “Serum calcium level as percent” value [4] was 86.0% and the “Serum calcium level as percent” value [5] was 100.0%. For the same compound, the “Serum calcium level as percent” value [6] was 80.8%, the “Serum calcium level as percent” value [7] was 71.8% and the “Serum calcium level as percent” value [8] was 63.5%. The “Serum calcium level as percent” value [9] was 55.1%.

In the case of “AGNLSTAMLGKLSQELHKGQTYPQTAIGVGAP-NH2 [Peptide No. 17]”, the “Serum calcium level as percent” value [10] is reported as 100.0%, the “Serum calcium level as percent” value [11] is reported as 77.6% and the “Serum calcium level as percent” value [12] is reported as 71.5%. For the same compound, the “Serum calcium level as percent” value [13] was 79.7% and the “Serum calcium level as percent” value [14] was 83.2%.

With “AGNLSTAMLGKLSQELHKLQTYPQTAIGVGAP-NH2 [Peptide No. 14]” the “Serum calcium level as percent” value [10] was 100.0%, the “Serum calcium level as percent” value [11] was 76.0% and the “Serum calcium level as percent” value [12] was 70.0%. The “Serum calcium level as percent” value [13] was 74.3% and the “Serum calcium level as percent” value [14] was 73.7%.

With “AGNLSTAMLGKLSQELHKLYPQTAIGVGAP-NH2 [Peptide No. 16]” the “Serum calcium level as percent” value [10] was 100.0%, the “Serum calcium level as percent” value [11] was 80.0% and the “Serum calcium level as percent” value [12] was 86.5%. For the same compound, the “Serum calcium level as percent” value [13] was 84.8% and the “Serum calcium level as percent” value [14] was 85.7%.

“AGNLSTAMLGKLSQELHKQTYPQTAIGVGAP-NH2 [Peptide No. 15]” was tested, and the “Serum calcium level as percent” value [10] was 100.0%, the “Serum calcium level as percent” value [11] was 75.5% and the “Serum calcium level as percent” value [12] was 67.5%. For the same compound, the “Serum calcium level as percent” value [13] was 80.6% and the “Serum calcium level as percent” value [14] was 75.3%.

With “Peptide No. 20: novel linear calcitonin-derivative peptide, Ala at 1 and 7, Leu8, SEQ ID NO:20 (AGNLTSALLGKLSQELHKLQTYPQTAIGVGAP; ends and bridges not checked)” the “Serum calcium level as percent” value [1] was 100.0%, the “Serum calcium level as percent” value (concentration 83 ng/ml, 1 hour) was 86.6% and the “Serum calcium level as percent” value [2] was 88.4%. For the same compound, the “Serum calcium level as percent” value [3] was 83.9%, the “Serum calcium level as percent” value [4] was 87.5% and the “Serum calcium level as percent” value [5] was 100.0%. For the same compound, the “Serum calcium level as percent” value [6] was 80.6%, the “Serum calcium level as percent” value [7] was 87.8% and the “Serum calcium level as percent” value [8] was 82.9%. For the same compound, the “Serum calcium level as percent” value [9] was 84.5%.
